Assay results as given in patent US20080026996A1, “Selective Vpac2 Receptor Reptide Agonists” (ELI LILLY AND COMPANY, priority 2004, published 2008).
Where a SMILES comes first, the peptide text is derived from it. Where no end group is shown, it is not given here. [ ]: non-standard residue; d: D form. The star is where a group is joined. hArg = N=C(N)NCCCC[C@H](N)C(=O)O; Hexanoyl = CCCCCC(=O)*; Aib = CC(C)(N)C(=O)O

Key:
[1] = target: T1, rat VPAC2 receptor (Rattus norvegicus, UniProt P35000); assay: DiscoveRx in vitro potency, CHO-PO cells transiently transfected with rat VPAC 2 receptor DNA; assay type: cell-based; design: expressed in transfected cells; host or cells: CHO-PO, transient
T1 sequence (P35000 23-437): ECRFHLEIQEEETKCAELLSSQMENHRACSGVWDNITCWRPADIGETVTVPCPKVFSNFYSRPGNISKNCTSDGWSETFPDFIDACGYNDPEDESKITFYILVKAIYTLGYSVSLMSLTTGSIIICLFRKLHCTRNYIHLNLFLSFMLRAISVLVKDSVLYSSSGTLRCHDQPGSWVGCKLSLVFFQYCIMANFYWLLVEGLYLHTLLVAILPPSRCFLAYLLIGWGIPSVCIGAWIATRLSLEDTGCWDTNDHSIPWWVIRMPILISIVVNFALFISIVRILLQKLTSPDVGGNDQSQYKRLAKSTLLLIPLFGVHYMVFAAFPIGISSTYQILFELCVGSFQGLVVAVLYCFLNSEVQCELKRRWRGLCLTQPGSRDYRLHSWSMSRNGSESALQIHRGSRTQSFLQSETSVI
Method: (§1) Also, the cells are washed twice. […] The stimuli are present for 30 minutes. Then, the assay buffer is gently removed.

[2] = target: T2, human VPAC2 (Homo sapiens, UniProt P41587); assay: Alpha screen cAMP in vitro potency, human VPAC2 receptor; assay type: cell-based; conditions: cAMP generation; single result from two analyses performed in a single run; read-out: Human VPAC2 Receptor: Alpha Screen EC50
T2 construct: expressed in transfected cells
T2 sequence (P41587 24-438): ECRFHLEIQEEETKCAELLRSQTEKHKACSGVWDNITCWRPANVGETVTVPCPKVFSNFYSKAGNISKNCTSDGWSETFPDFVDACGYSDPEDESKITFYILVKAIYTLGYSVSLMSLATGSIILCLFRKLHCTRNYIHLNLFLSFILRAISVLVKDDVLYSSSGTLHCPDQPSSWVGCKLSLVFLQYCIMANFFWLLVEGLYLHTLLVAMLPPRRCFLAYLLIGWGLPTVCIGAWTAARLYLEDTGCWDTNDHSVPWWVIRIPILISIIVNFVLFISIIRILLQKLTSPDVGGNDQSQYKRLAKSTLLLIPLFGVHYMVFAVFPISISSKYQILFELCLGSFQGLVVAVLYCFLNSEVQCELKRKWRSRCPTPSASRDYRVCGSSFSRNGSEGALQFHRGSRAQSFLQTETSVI
How it was run: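 Stimulated cAMP accumulation is read by AlphaScreen after 60 min exposure of 50,000 non-enzymatically harvested cells to compound, followed by lysis with donor beads.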

[3] = target: T3, rat VPAC1 receptor (Rattus norvegicus, UniProt P30083); assay: DiscoveRx in vitro potency, CHO-PO cells transiently transfected with rat VPAC 1 receptor DNA; assay type: cell-based; design: expressed in transfected cells; host or cells: CHO-PO, transient
T3 sequence (P30083 31-459): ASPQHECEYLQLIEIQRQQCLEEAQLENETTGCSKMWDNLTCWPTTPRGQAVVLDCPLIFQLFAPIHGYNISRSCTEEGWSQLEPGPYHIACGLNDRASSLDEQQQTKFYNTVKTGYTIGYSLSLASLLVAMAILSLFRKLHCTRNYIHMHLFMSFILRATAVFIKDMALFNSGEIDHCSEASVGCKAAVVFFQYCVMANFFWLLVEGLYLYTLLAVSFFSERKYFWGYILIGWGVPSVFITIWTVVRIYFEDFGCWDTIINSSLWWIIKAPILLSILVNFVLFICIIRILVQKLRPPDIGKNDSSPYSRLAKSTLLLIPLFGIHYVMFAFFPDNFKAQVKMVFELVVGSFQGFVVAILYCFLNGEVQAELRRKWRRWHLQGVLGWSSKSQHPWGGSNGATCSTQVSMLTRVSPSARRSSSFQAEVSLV
Method: as §1

[4] = target: T4, human PAC1 (Homo sapiens, UniProt P41586); assay: Filter binding assay, membranes of cells transiently transfected with human PAC1, 125I-labeled PACAP-27 tracer (Table 2); design: expressed in transfected cells; conditions: read-out: Human PAC1 Receptor Binding
T4 sequence (P41586 21-468): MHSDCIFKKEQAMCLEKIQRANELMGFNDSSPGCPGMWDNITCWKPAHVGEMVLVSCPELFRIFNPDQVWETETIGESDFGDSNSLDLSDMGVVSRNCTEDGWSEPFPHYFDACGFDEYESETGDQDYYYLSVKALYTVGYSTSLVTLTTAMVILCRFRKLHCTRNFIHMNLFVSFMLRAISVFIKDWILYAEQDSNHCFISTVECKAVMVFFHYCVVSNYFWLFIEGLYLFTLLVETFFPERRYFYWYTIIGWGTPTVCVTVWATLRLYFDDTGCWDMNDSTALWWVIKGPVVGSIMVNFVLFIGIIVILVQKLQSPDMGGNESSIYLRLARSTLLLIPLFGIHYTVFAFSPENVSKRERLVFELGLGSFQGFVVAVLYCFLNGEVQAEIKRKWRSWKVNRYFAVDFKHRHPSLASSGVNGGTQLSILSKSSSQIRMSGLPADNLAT
How it was run: (§2)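 Radioligand displacement was measured with 2.5 μg membrane protein per well and roughly 40000 cpm of iodinated tracer. After a 1-hour incubation, bound and free label were separated on BSA-blocked glass-fibre filters and quantified by scintillation.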

[5] = target: T2, human VPAC2; assay: Filter binding assay, membranes of stable VPAC2 cell line, 125I-labeled VIP tracer (Table 2); conditions: read-out: Human VPAC2 Receptor Binding
How it was run: as §2

[6] = target: T5, human VPAC1 (Homo sapiens, UniProt P32241); assay: Filter binding assay, membranes of cells transiently transfected with human VPAC1, 125I-labeled VIP tracer (Table 2); design: expressed in transfected cells; conditions: read-out: Human VPAC1 Receptor Binding
T5 sequence (P32241 31-457): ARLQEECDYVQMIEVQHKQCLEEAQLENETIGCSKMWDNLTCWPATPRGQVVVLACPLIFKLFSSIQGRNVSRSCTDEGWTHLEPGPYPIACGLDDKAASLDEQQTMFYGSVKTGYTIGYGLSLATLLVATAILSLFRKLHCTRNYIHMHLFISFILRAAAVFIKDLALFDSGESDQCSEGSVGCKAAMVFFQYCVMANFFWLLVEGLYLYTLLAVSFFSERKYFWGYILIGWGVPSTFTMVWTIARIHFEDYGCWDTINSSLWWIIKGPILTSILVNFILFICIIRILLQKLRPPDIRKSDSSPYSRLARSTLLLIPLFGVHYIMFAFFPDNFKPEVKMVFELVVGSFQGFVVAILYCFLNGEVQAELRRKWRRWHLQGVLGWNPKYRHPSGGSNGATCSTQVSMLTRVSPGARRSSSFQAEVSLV
How it was run: as §2

[7] = Rat serum stability studies (remaining active peptide by DiscoveRx cAMP on CHO-VPAC2 cells); assay type: in vitro ADME
How it was run: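 EC50 from a DiscoveRx cAMP read-out on CHO-VPAC2 cells indexes how much peptide stays active after 18 h in rat serum at 37° C without aprotinin, against an aprotinin-protected 4° C aliquot.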

[8] = rat, in vivo, iv, 10 ug/kg
Method: (§3) An IVGTT with glucose is given immediately after T=0 to 6 animals per condition. Samples are taken at 0, 2, 4, 6, and 10 minutes after injection.
(§4) For cell handling, Plate 50,000 cells/well and keep in culture over night. Wash cell twice in PBS and add 50 μl/well stimulation medium consisting of PBS+1.2 MgCl2, 1.3 CaCl2, 2 glucose and 0.5 IBMX. Incubate 15 minutes and add 50 μl/well of the plasma samples (see layout below). Incubate 30 minutes, remove the supernatant and proceed as normal with the DiscoveRx assay. Prepare plates in duplicate. Protease and peptidase inhibitor are present in all plasma samples.

[9] = target: T2, human VPAC2; assay: DiscoveRx cAMP in vitro potency, CHO-S cell line stably expressing human VPAC2 receptor; assay type: cell-based; conditions: cAMP generation; mean of two independent runs
Method: Also, the cells are washed twice. The cells are incubated in assay buffer plus IBMX for 15 minutes at room temperature. […] The stimuli are present for 30 minutes. Then, the assay buffer is gently removed. […] At day 3, the assay described above for the VPAC2 receptor cell line is performed.

[10] = tested on: Normal Wistar rats; assay: Intravenous glucose tolerance test (IVGTT); assay type: in vivo, rat; conditions: IVGTT, insulin
Method: Intravenous glucose tolerance test (IVGTT): Normal Wistar rats are fasted overnight and are anesthetized prior to the experiment. A blood sampling catheter is inserted into the rats. The compound is given in the jugular vein. Blood samples are taken from the carotid artery. A blood sample is drawn immediately prior to the injection of glucose along with the compound. After the initial blood sample, glucose mixed with compound is injected intravenously (i.v.). A glucose challenge of 0.5 g/kg body weight is given, injecting a total of 1.5 mL vehicle with glucose and agonist per kg body weight. The peptide concentration vary to produce the desired dose in μg/kg. Blood samples are drawn at 2, 4, 6 and 10 minutes after giving glucose. The control group of animals receives the same vehicle along with glucose, but with no compound added. In some instances, a 30 minute post-glucose blood sample is drawn. Aprotinin is added to the blood sample (250 kIU/ml blood). The serum is then analyzed for glucose and insulin using standard methodologies.
The assay uses a formulated and calibrated peptide stock in PBS. Normally, this stock is a prediluted 100 μM stock. However, a more concentrated stock with approximately 1 mg agonist per mL is used. The specific concentration is always known. Variability in the maximal response is mostly due to variability in the vehicle dose.

[11] = in vivo; conditions: Wistar, rat, iv, 10 ug/kg
Method: as §3, §4

Hexanoyl-HSDAVFTDNYTRLR[Aib]QLAAK[Aib]YLQSIKNKRYGGPSSGAPPPS [Agonist P284]
EC50 [1]: 0.07 nM | EC50 [2]: 0.18 nM | EC50 [3]: 0.44 nM | IC50 [4]: > 25000 nM | IC50 [5]: 0.38 nM | IC50 [6]: > 3000 nM | Rat Serum Stability (estimated purity in % after 18 hours) [7]: 27.89%

HSDAVFTDNYTRLLAKVAAKKYLQSIKNKRYGGPSSGAPPPS [Agonist P89]
Exposure (10 μg/kg, Vdist in μg/(nM * kg)) [8]: 0.64 µg/nM/kg | EC50 [2]: 1.23 nM | EC50 [3]: 0.02 nM | IC50 [5]: 0.15 nM | EC50 [9]: 0.7 nM | IC50 [6]: 162 nM | Rat Serum Stability (Estimated purity in % after 72 hours) [7]: <0.4% | % increase AUC: Dose = 0.5 μg/kg ([10]; 0.5 μg/kg): 110% | % increase AUC: Dose = 10 μg/kg ([10]; 10 μg/kg): 280% | AUC(0-t) [11]: 0.523 nM·h | Cmax [11]: 5.45 nM | half-life [11]: 1.32 min

Hexanoyl-HSDAVFTDNYTRL[Aib]KQVAAK[Aib]YLQSIKNKRYGGPSSGAPPPS [Agonist P244]
EC50 [3]: 127 nM | IC50 [4]: > 25000 nM | IC50 [5]: 26.9 nM | IC50 [6]: > 3000 nM | Rat Serum Stability (Estimated purity in % after 72 hours) [7]: 6.2% | Rat Serum Stability (estimated purity in % after 18 hours) [7]: 30.64%

Hexanoyl-HSDAVFTDNYTRLR[Aib]QIAA[Aib]KYLQSIKNKRYGGPSSGAPPPS [Agonist P322]
EC50 [1]: 0.04 nM | EC50 [2]: 0.22 nM | EC50 [3]: 0.5 nM | IC50 [4]: > 25000 nM | IC50 [5]: 0.4 nM | IC50 [6]: > 3000 nM | Rat Serum Stability (Estimated purity in % after 72 hours) [7]: 1.3% | Rat Serum Stability (estimated purity in % after 18 hours) [7]: 42.18%

Hexanoyl-HSDAVFTDNYTRLLAKVAAKKYLQSIKNKRYGGPSSGAPPPS [Agonist P135]
EC50 [1]: 0.05 nM | EC50 [2]: 0.18 nM | EC50 [3]: 0.02 nM | IC50 [4]: 748 nM | IC50 [5]: 0.43 nM | IC50 [6]: 251 nM

CCCCCC(=O)N[C@@H](Cc1c[nH]cn1)C(=O)N[C@@H](CO)C(=O)N[C@@H](CC(=O)O)C(=O)N[C@@H](C)C(=O)N[C@H](C(=O)N[C@@H](Cc1ccccc1)C(=O)N[C@H](C(=O)N[C@@H](CC(=O)O)C(=O)N[C@@H](CC(N)=O)C(=O)N[C@@H](Cc1ccc(O)cc1)C(=O)N[C@H](C(=O)N[C@@H](CCCCNC(=N)N)C(=O)N[C@@H](CC(C)C)C(=O)N[C@@H](CCCNC(=N)N)C(=O)NC(C)(C)C(=O)N[C@@H](CCC(N)=O)C(=O)N[C@H](C(=O)N[C@@H](C)C(=O)N[C@@H](C)C(=O)NC(C)(C)C(=O)N[C@@H](CCCCN)C(=O)N[C@@H](Cc1ccc(O)cc1)C(=O)N[C@@H](CC(C)C)C(=O)N[C@@H](CCC(N)=O)C(=O)N[C@@H](CO)C(=O)N[C@H](C(=O)N[C@@H](CCCCNC(=N)N)C(=O)N[C@@H](CCCCNC(=N)N)C(=O)NCC(=O)NCC(=O)N1CCC[C@H]1C(=O)N[C@@H](CO)C(=O)N[C@@H](CO)C(=O)NCC(=O)N[C@@H](C)C(=O)N1CCC[C@H]1C(=O)N1CCC[C@H]1C(=O)N1CCC[C@H]1C(=O)N[C@@H](CS)C(N)=O)[C@@H](C)CC)C(C)C)[C@@H](C)O)[C@@H](C)O)C(C)C [Agonist P333] (Hexanoyl-HSDAVFTDNYT[hArg]LR[Aib]QVAA[Aib]KYLQSI[hArg][hArg]GGPSSGAPPPC-NH2)
EC50 [1]: 0.13 nM | EC50 [2]: 0.75 nM | EC50 [3]: 1.37 nM | IC50 [5]: 9.71 nM | IC50 [6]: > 3000 nM | Rat Serum Stability (Estimated purity in % after 72 hours) [7]: 61.2% | Rat Serum Stability (estimated purity in % after 18 hours) [7]: 40.90%

Hexanoyl-HSEAVFTENYTRLR[Aib]QVAA[Aib]KYLQSIKNKRYGGPSSGAPPPS [Agonist P314]
EC50 [2]: 0.22 nM | EC50 [3]: 29.2 nM | IC50 [4]: > 25000 nM | IC50 [5]: 0.57 nM | IC50 [6]: > 3000 nM | Rat Serum Stability (estimated purity in % after 18 hours) [7]: 8.44%
